As a reminder, the IC50 is the concentration that inhibits the measured activity by half.

Structures are written as SMILES. A value given as a limit tells only on which side of the number the result lay.

One test has as its target T1, purified HLA DRB1*0101 (Homo sapiens, UniProt P01903+P01911, A100R/D57E/F55L/F60I/F76Y/I96L/L162R/M171V/P40L/Q125E/R42F/V115G/Y59C).
T1 construct: purified from EBV transformed homozygous cell lines or single MHC allele transfected 721.221, C1R, or fibroblast lines; made in house
The test is described as follows: HLA-DR radioligand binding inhibition assay, DRB1*0101. As to conditions: IC50 nM purified HLA DRB1 *0101, purified HLA DRB1*0101. The method in brief: (§1)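 First, HLA-DR was purified from lysates on LB3.1 columns. Then 1 μM to 1 nM protein was incubated 2 days with 1-10 nM radiolabeled peptide at pH 4 to 7. Finally, complexes were captured for 3 hours and bound cpm determined.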

In a further test the target is T2, purified HLA DRB1*0301 (Homo sapiens, UniProt P01903+P01911, A100K/A102G/A103R/A169T/F55Y/I96L/K41T/L162R/M171V/P40S/Q125H/Q178H/Q39Y/R42S/S66N/T106N/T262R/W38E/Y61H).
T2 construct: purified from EBV transformed homozygous cell lines or single MHC allele transfected 721.221, C1R, or fibroblast lines; made in house
Briefly: HLA-DR radioligand binding inhibition assay, DRB1*0301. The following applies: IC50 nM purified HLA DRB1 *0301, purified HLA DRB1*0301. As for the experimental part:
(§2) Instead, wells of an opaque white 96-well Optiplate (Packard) are coated with 3 μg (100 μl@ 30 μg/ml) of HLA-specific antibody (Ab) that “capture” complexes of radiolabeled MHC and unlabeled peptide transferred from the molecular binding assay plate in 100 μl of 0.05% NP40/PBS. After a 3-hour incubation period, the supernatant is decanted and scintillation fluid (Microscint 20) added. Captured complexes are then measured on a microplate scintillation and luminescence counter (TopCount NXTTM; Packard).
(§3) HLA-DR purification. Fifteen distinct HLA-DR molecules were used in quantitative assays to measure the binding of peptides to solubilized HLA-DR molecules. […] Briefly, columns of inactivated Sepharose CL4B and Protein A Sepharose were used as pre-columns. HLA-DR molecules were captured by passage of lysates over LB3.1 monoclonal antibody (anti-HLA-DRA) columns. Antibody columns were washed with 10 mM Tris-HCL, pH8.0 with 1% (v/v) NP-40, followed by PBS containing 0.4% (w/v) n-octylglucoside.
(§4) Briefly, 1-10 nM of radiolabeled peptide was co-incubated for 2 days at either room temperature or 37° C. with 1 μM to 1 nM purified HLA-DR molecules in the presence of a cocktail of protease inhibitors. Assays were performed at various pH conditions, ranging from pH 4 to pH 7. […] After incubation, the percentage of HLA-DR-bound radioactivity is determined by capturing HLA-DR/peptide complexes on Optiplates (Packard Instruments, Meriden, Conn.) coated with the LB3.1 antibody and determining bound counts per minute using the TopCount microscintillation counter (Packard Instruments).

The next test addresses T3, purified HLA DRB1*0401 (Homo sapiens, UniProt P01903+P01911, A100K/A169T/F76Y/I96L/K127E/L162R/M171V/N62H/P40V/Q125Y/R42H/S133A/S149N/S66Y/V115G/V209L/W38E).
T3 construct: purified from EBV transformed homozygous cell lines or single MHC allele transfected 721.221, C1R, or fibroblast lines; made in house
The test is described as follows: HLA-DR radioligand binding inhibition assay, DRB1*0401. As to conditions: IC50 nM purified HLA DRB1 *0401, purified HLA DRB1*0401. The method in brief:
as §1

Another test concerns the target T4, purified HLA DRB1*0404 (Homo sapiens, UniProt P01903+P01911, A100R/A169T/F76Y/I96L/K127E/L162R/M171V/N62H/P40V/Q125Y/R42H/S133A/S149N/S66Y/V209L/W38E).
T4 construct: purified from EBV transformed homozygous cell lines or single MHC allele transfected 721.221, C1R, or fibroblast lines; made in house
The test is described as follows: HLA-DR radioligand binding inhibition assay, DRB1*0404. The following applies: IC50 nM purified HLA DRB1 *0404, purified HLA DRB1*0404. In short, it runs like this: as §1

Another test deals with T5, purified HLA DRB1*0405 (Homo sapiens, UniProt P01903+P01911, A100R/A169T/D86S/F76Y/I96L/K127E/L162R/M171V/N62H/P40V/Q125Y/R42H/S133A/S149N/S66Y/V115G/V209L/W38E).
T5 construct: purified from EBV transformed homozygous cell lines or single MHC allele transfected 721.221, C1R, or fibroblast lines; made in house
The test is described as follows: HLA-DR radioligand binding inhibition assay, DRB1*0405. The following applies: IC50 nM purified HLA DRB1 *0405, purified HLA DRB1*0405. In short, it runs like this: as §1

A further test has as its target T6, purified HLA DRB1*0701 (Homo sapiens, UniProt P01903+P01911, A100R/A102G/A103Q/D57E/D86V/E43K/F76Y/K127E/L162R/M171V/P40G/Q125H/Q99D/R33Q/R42Y/R54Q/S133A/S66F/T210M/V115G/Y107V/Y59L/Y89S).
T6 construct: purified from EBV transformed homozygous cell lines or single MHC allele transfected 721.221, C1R, or fibroblast lines; made in house
The test is described as follows: HLA-DR radioligand binding inhibition assay, DRB1*0701. The following applies: IC50 nM purified HLA DRB1 *0701, purified HLA DRB1*0701. In short, it runs like this:
as §1

The target in a further test is T7, purified HLA DRB1*0802 (Homo sapiens, UniProt P01903+P01911, A100R/A103L/A169T/F76Y/H45Y/I96F/K41T/L162R/M171V/P40S/Q125H/Q178H/Q39Y/Q99D/R218S/R42G/S66Y/V115G/W38E).
T7 construct: purified from EBV transformed homozygous cell lines or single MHC allele transfected 721.221, C1R, or fibroblast lines; made in house
Briefly: HLA-DR radioligand binding inhibition assay, DRB1*0802. The following applies: IC50 nM purified HLA DRB1 *0802, purified HLA DRB1*0802. The procedure:
as §2
as §3, with “n-octylglucoside. […] The pH was reduced to 8.0 and the eluates were concentrated by centrifugation in Centriprep 30 concentrators at 2000 rpm (Amicon, Beverly, Mass.).” for “n-octylglucoside.”
as §4, with “Instruments). […] Competitor peptides are tested in 2-4 complete, independent experiments, at concentrations ranging from […].” for “Instruments).”

For a further test, the target named is T8, purified HLA DRB1*0901 (Homo sapiens, UniProt P01903+P01911, A100R/A103E/D57H/D86V/F55Y/F60I/F76Y/I96F/K127E/L162R/M171V/P40D/Q125H/Q99R/R33Q/R42F/S133A/S66N/T210M/V115G/W38K/Y107V/Y59G/Y89S).
T8 construct: purified from EBV transformed homozygous cell lines or single MHC allele transfected 721.221, C1R, or fibroblast lines; made in house
The test is described as follows: HLA-DR radioligand binding inhibition assay, DRB1*0901. As to conditions: IC50 nM purified HLA DRB1 *0901, purified HLA DRB1*0901. The procedure: as §2, §3, §4

The target in another test is T9, purified HLA DRB1*1101 (Homo sapiens, UniProt P01903+P01911, A100R/A169T/A87E/I96F/K41T/L162R/M171V/P40S/Q125H/Q178H/Q39Y/Q99D/R42S/S66Y/T262R/V115G/W38E).
T9 construct: purified from EBV transformed homozygous cell lines or single MHC allele transfected 721.221, C1R, or fibroblast lines; made in house
T9 sequence (P01903 26-254, other chains not shown): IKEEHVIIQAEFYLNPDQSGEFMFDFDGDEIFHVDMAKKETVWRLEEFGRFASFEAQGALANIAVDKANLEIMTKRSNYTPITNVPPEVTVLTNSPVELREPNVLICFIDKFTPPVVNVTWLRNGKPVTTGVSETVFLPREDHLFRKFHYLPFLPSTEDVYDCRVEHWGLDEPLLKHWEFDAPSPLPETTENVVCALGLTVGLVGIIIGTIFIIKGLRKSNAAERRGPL
The test is described as follows: HLA-DR radioligand binding inhibition assay, DRB1*1101. As to conditions: IC50 nM purified HLA DRB1 *1101, purified HLA DRB1*1101. The method in brief: as §1

The target of another test is T10, purified HLA DRB1*1201 (Homo sapiens, UniProt P01903+P01911, A100R/A169T/D57E/D86V/F55L/H45Y/K41T/L162R/M171V/P40S/Q125H/Q178H/Q39Y/Q99D/R42G/S66L/T262R/V114A/V67L/W38E/Y59H/Y61H/Y89S).
T10 construct: purified from EBV transformed homozygous cell lines or single MHC allele transfected 721.221, C1R, or fibroblast lines; made in house
Briefly: HLA-DR radioligand binding inhibition assay, DRB1*1201. The procedure:
as §2
as §3, with “n-octylglucoside. […] The pH was reduced to 8.0 and the eluates were concentrated by centrifugation in Centriprep 30 concentrators at 2000 rpm (Amicon, Beverly, Mass.).” for “n-octylglucoside.”
as §4, with “Instruments). […] Competitor peptides are tested in 2-4 complete, independent experiments, at concentrations ranging from […].” for “Instruments).”

For another test, the target named is T11, purified HLA DRB5*0101 (Homo sapiens, UniProt P01903+Q30154).
T11 construct: purified from EBV transformed homozygous cell lines or single MHC allele transfected 721.221, C1R, or fibroblast lines; made in house
The test is described as follows: HLA-DR radioligand binding inhibition assay, DRB5*0101. As to conditions: IC50 nM purified HLA DRB5 *0101, purified HLA DRB5*0101. In short, it runs like this:
as §1

Another test has as its target T12, purified HLA DRB1*1501 (Homo sapiens, UniProt P01903+P01911).
T12 construct: purified from EBV transformed homozygous cell lines or single MHC allele transfected 721.221, C1R, or fibroblast lines; made in house
The test is described as follows: HLA-DR radioligand binding inhibition assay, DRB1*1501. In short, it runs like this:
as §1

In another test the target is T13, purified HLA DRB4*0101 (Homo sapiens, UniProt P01903+P13762, G164S).
T13 construct: purified from EBV transformed homozygous cell lines or single MHC allele transfected 721.221, C1R, or fibroblast lines; made in house
Briefly: HLA-DR radioligand binding inhibition assay, DRB4*0101. The following applies: IC50 nM purified HLA DRB4 *0101, purified HLA DRB4*0101. The method in brief: as §1

As to `CC[C@H](C)[C@H](NC(=O)[C@@H](NC(=O)[C@@H]1CCCN1C(=O)[C@H](C)N)[C@@H](C)O)C(=O)N[C@@H](CCCNC(=N)N)C(=O)NCC(=O)N[C@@H](CC(=O)O)C(=O)N1CCC[C@H]1C(=O)N[C@@H](CCC(=O)O)C(=O)N[C@@H](CS)C(=O)N[C@@H](Cc1c[nH]cn1)C(=O)N[C@@H](CC(C)C)C(=O)N[C@@H](Cc1ccccc1)C(=O)N[C@@H](Cc1ccc(O)cc1)C(=O)N[C@@H](CC(N)=O)C(=O)O` [Peptide 9019.0022], the half-inhibitory concentration (IC50) was 4030 nM at purified HLA DRB1*0101; 31 nM at purified HLA DRB1*0301; 1640 nM at purified HLA DRB1*0401; 2910 nM at purified HLA DRB1*0404; > 20000 nM at purified HLA DRB1*0405; 16800 nM on purified HLA DRB1*0701. For the same compound, the IC50 on purified HLA DRB1*0802 was > 20000 nM; at purified HLA DRB1*0901, > 20000 nM; at purified HLA DRB1*1101 it was > 20000 nM; on purified HLA DRB1*1201, 16900 nM; at purified HLA DRB5*0101, > 20000 nM.
On to `CC(C)C[C@H](NC(=O)[C@H](Cc1c[nH]cn1)NC(=O)[C@@H](N)CS)C(=O)N[C@@H](Cc1ccccc1)C(=O)N[C@@H](Cc1ccc(O)cc1)C(=O)N[C@@H](CC(N)=O)C(=O)N[C@@H](CCC(=O)O)C(=O)N[C@@H](CCC(N)=O)C(=O)N[C@@H](CCC(N)=O)C(=O)N[C@@H](CCC(=O)O)C(=O)N[C@@H](C)C(=O)N[C@@H](CCCNC(=N)N)C(=O)NCC(=O)N[C@H](C(=O)N[C@@H](Cc1c[nH]cn1)C(=O)O)C(C)C` [Peptide 9019.0023], for which the IC50 at purified HLA DRB1*0405, at purified HLA DRB1*0701, at purified HLA DRB1*0802, at purified HLA DRB1*0901, at purified HLA DRB1*1101 and on purified HLA DRB1*1501 was > 20000 nM each time. The 50% inhibitory concentration (IC50) at purified HLA DRB4*0101 is 5310 nM; at purified HLA DRB5*0101 it was > 20000 nM.

The values above are taken from patent publication US20140377340A1, “HLA-DR BINDING PEPTIDES AND THEIR USES” (priority 2007, published 2014).
